Assay results taken from the NIST ThermoML archive (doi:10.1016/j.jct.2010.08.016).
Numbers after ± are expanded uncertainties.

How the values were obtained:
[1] = xn = mol fraction of the nth substance listed; settings: 101 kPa, Liquid; for electrical conductivity: Alternating current cell with electrodes; for mass density: Vibrating tube method
[2] = refractive index (Na D-line) (dimensionless); xn = mol fraction of the nth substance listed; settings: 101 kPa, Liquid, Standard Abbe refractometry

NC(CO)(CO)CO [2-amino-2-(hydroxymethyl)-1,3-propanediol] + O
Settings | electrical conductivity, [1] [S/m] | mass density, [1] [kg/m3] | refractive index, [2]
293.15 K, x1 = 0.01 | 0.0158 ± 0.00032 | 1022.2 ± 0.8 | 1.34226 ± 0.00031
293.15 K, x1 = 0.02 | 0.0179 ± 0.00036 | 1036.6 ± 0.8 | 1.35089 ± 0.00031
293.15 K, x1 = 0.03 | 0.0189 ± 0.00038 | 1049.4 ± 0.8 | 1.35884 ± 0.00031
293.15 K, x1 = 0.04 | 0.0193 ± 0.00039 | 1056.4 ± 0.8 | 1.37118 ± 0.00031
293.15 K, x1 = 0.05 | 0.0205 ± 0.00041 | 1073.8 ± 0.8 | 1.37635 ± 0.00031
293.15 K, x1 = 0.06 | 0.0205 ± 0.00041 | 1079.9 ± 0.8 | 1.3797 ± 0.00031
293.15 K, x1 = 0.07 | 0.018 ± 0.00036 | 1090 ± 0.8 | 1.38587 ± 0.00031
298.15 K, x1 = 0.01 | – | – | 1.34173 ± 0.00031
298.15 K, x1 = 0.02 | – | – | 1.35029 ± 0.00031
298.15 K, x1 = 0.03 | – | – | 1.35819 ± 0.00031
298.15 K, x1 = 0.04 | – | – | 1.37048 ± 0.00031
298.15 K, x1 = 0.05 | – | – | 1.37565 ± 0.00031
298.15 K, x1 = 0.06 | – | – | 1.37896 ± 0.00031
298.15 K, x1 = 0.07 | – | – | 1.38509 ± 0.00031
303.15 K, x1 = 0.01 | 0.0195 ± 0.00039 | 1019.5 ± 0.8 | 1.34111 ± 0.00031
303.15 K, x1 = 0.02 | 0.0229 ± 0.00046 | 1033.6 ± 0.8 | 1.34961 ± 0.00031
303.15 K, x1 = 0.03 | 0.0247 ± 0.00049 | 1046.2 ± 0.8 | 1.35746 ± 0.00031
303.15 K, x1 = 0.04 | 0.0253 ± 0.00051 | 1053.3 ± 0.8 | 1.3697 ± 0.00031
303.15 K, x1 = 0.05 | 0.0271 ± 0.00054 | 1070.3 ± 0.8 | 1.37485 ± 0.00031
303.15 K, x1 = 0.06 | 0.0271 ± 0.00054 | 1076.2 ± 0.8 | 1.37816 ± 0.00031
303.15 K, x1 = 0.07 | 0.0235 ± 0.00047 | 1086.3 ± 0.8 | 1.38425 ± 0.00031
308.15 K, x1 = 0.01 | – | – | 1.34042 ± 0.00031
308.15 K, x1 = 0.02 | – | – | 1.34889 ± 0.00031
308.15 K, x1 = 0.03 | – | – | 1.35667 ± 0.00031
308.15 K, x1 = 0.04 | – | – | 1.36888 ± 0.00031
308.15 K, x1 = 0.05 | – | – | 1.37406 ± 0.00031
308.15 K, x1 = 0.06 | – | – | 1.37728 ± 0.00031
308.15 K, x1 = 0.07 | – | – | 1.38334 ± 0.00031
313.15 K, x1 = 0.01 | 0.0241 ± 0.00048 | 1016 ± 0.8 | 1.33972 ± 0.00031
313.15 K, x1 = 0.02 | 0.0287 ± 0.00057 | 1029.9 ± 0.8 | 1.34821 ± 0.00031
313.15 K, x1 = 0.03 | 0.031 ± 0.00062 | 1042.4 ± 0.8 | 1.35596 ± 0.00031
313.15 K, x1 = 0.04 | 0.0318 ± 0.00064 | 1049.3 ± 0.8 | 1.36815 ± 0.00031
313.15 K, x1 = 0.05 | 0.0341 ± 0.00068 | 1066.1 ± 0.8 | 1.37347 ± 0.00031
313.15 K, x1 = 0.06 | 0.0341 ± 0.00068 | 1071.8 ± 0.8 | 1.37673 ± 0.00031
313.15 K, x1 = 0.07 | 0.03 ± 0.0006 | 1081.8 ± 0.8 | 1.38271 ± 0.00031
318.15 K, x1 = 0.01 | – | – | 1.33899 ± 0.00031
318.15 K, x1 = 0.02 | – | – | 1.34742 ± 0.00031
318.15 K, x1 = 0.03 | – | – | 1.3552 ± 0.00031
318.15 K, x1 = 0.04 | – | – | 1.36739 ± 0.00031
318.15 K, x1 = 0.05 | – | – | 1.37247 ± 0.00031
318.15 K, x1 = 0.06 | – | – | 1.37581 ± 0.00031
318.15 K, x1 = 0.07 | – | – | 1.38182 ± 0.00031
323.15 K, x1 = 0.01 | 0.0287 ± 0.00057 | 1011.6 ± 0.8 | 1.3381 ± 0.00031
323.15 K, x1 = 0.02 | 0.0346 ± 0.00069 | 1025.5 ± 0.8 | 1.34668 ± 0.00031
323.15 K, x1 = 0.03 | 0.0373 ± 0.00075 | 1037.8 ± 0.8 | 1.35447 ± 0.00031
323.15 K, x1 = 0.04 | 0.0385 ± 0.00077 | 1044.7 ± 0.8 | 1.36673 ± 0.00031
323.15 K, x1 = 0.05 | 0.0411 ± 0.00082 | 1061.3 ± 0.8 | 1.37176 ± 0.00031
323.15 K, x1 = 0.06 | 0.0411 ± 0.00082 | 1067 ± 0.8 | 1.37507 ± 0.00031
323.15 K, x1 = 0.07 | 0.0367 ± 0.00073 | 1076.9 ± 0.8 | 1.38124 ± 0.00031
328.15 K, x1 = 0.01 | – | – | 1.33723 ± 0.00031
328.15 K, x1 = 0.02 | – | – | 1.34603 ± 0.00031
328.15 K, x1 = 0.03 | – | – | 1.35389 ± 0.00031
328.15 K, x1 = 0.04 | – | – | 1.36626 ± 0.00031
328.15 K, x1 = 0.05 | – | – | 1.37115 ± 0.00031
328.15 K, x1 = 0.06 | – | – | 1.37453 ± 0.00031
328.15 K, x1 = 0.07 | – | – | 1.38089 ± 0.00031
333.15 K, x1 = 0.01 | 0.0333 ± 0.00067 | 1006 ± 0.8 | –
333.15 K, x1 = 0.02 | 0.0403 ± 0.00081 | 1020 ± 0.8 | –
333.15 K, x1 = 0.03 | 0.0435 ± 0.00087 | 1032.7 ± 0.8 | –
333.15 K, x1 = 0.04 | 0.0452 ± 0.0009 | 1039.6 ± 0.8 | –
333.15 K, x1 = 0.05 | 0.0482 ± 0.00096 | 1056 ± 0.8 | –
333.15 K, x1 = 0.06 | 0.0482 ± 0.00096 | 1061.7 ± 0.8 | –
333.15 K, x1 = 0.07 | 0.0435 ± 0.00087 | 1071.4 ± 0.8 | –
343.15 K, x1 = 0.01 | 0.0378 ± 0.00076 | 998.9 ± 0.8 | –
343.15 K, x1 = 0.02 | 0.046 ± 0.00092 | 1013.2 ± 0.8 | –
343.15 K, x1 = 0.03 | 0.0497 ± 0.00099 | 1027 ± 0.8 | –
343.15 K, x1 = 0.04 | 0.0518 ± 0.001 | 1033.9 ± 0.8 | –
343.15 K, x1 = 0.05 | 0.0552 ± 0.0011 | 1050.2 ± 0.8 | –
343.15 K, x1 = 0.06 | 0.0552 ± 0.0011 | 1055.9 ± 0.8 | –
343.15 K, x1 = 0.07 | 0.0503 ± 0.001 | 1065.6 ± 0.8 | –
353.15 K, x1 = 0.01 | 0.0423 ± 0.00085 | 989.9 ± 0.8 | –
353.15 K, x1 = 0.02 | 0.0514 ± 0.001 | 1004.9 ± 0.8 | –
353.15 K, x1 = 0.03 | 0.0555 ± 0.0011 | 1020.8 ± 0.8 | –
353.15 K, x1 = 0.04 | 0.0579 ± 0.0012 | 1027.6 ± 0.8 | –
353.15 K, x1 = 0.05 | 0.0619 ± 0.0012 | 1044 ± 0.8 | –
353.15 K, x1 = 0.06 | 0.0619 ± 0.0012 | 1049.5 ± 0.8 | –
353.15 K, x1 = 0.07 | 0.0567 ± 0.0011 | 1059.2 ± 0.8 | –
